Experimental data: US10800778B2 (Entasis Therapeutics Limited, priority 2016, dated 2020)

What was measured:
[1] = Stability in pH 7.4 buffer (no enzyme); format: physicochemical; details: read-out: T1/2 pH 7.4 Buffer
Protocol: (§1) The human intestinal S9 with the absence of PMSF, human liver S9, rat intestinal S9, and rat liver S9 preparations were obtained from Xenotech (Lenexa, Kans.). The 500-μL incubation solution contained 0.8 mg/mL of enzyme (or no enzyme for buffer stability), 10 μM of test compounds in 100 mM of HEPES buffer, pH 7.4. The hydrolysis reactions were conducted in a 1-mL glass insert (Analytical Sales, Pompton Plains, N.J.) in a shake water bath at 37° C. At 0, 2, 5, 10, 15, 30 and 60 min, the reaction was terminated by pipetting 50 μL incubate to a 96 DeepWell plate (Thermo Fisher Scientific, Rochester, N.Y.) containing 100 μL of acetonitrile with 250 ng/mL of Carbutamide (Sigma-Aldrich, St. Louis, Miss.) as the internal standard. The crashed solutions were then vortexed well followed by centrifuge at 4000 rpm for 15 min at 4° C. The extract was transferred to a new 96 DeepWell plate for LC-MS/MS analysis.
(§2) LC-MS/MS analysis was done using an AB Sciex QTrap 6500 mass spectrometer under positive ionization mode, coupled to a Schimadzu Nexera LC system.
(§3) A Waters Atlantis T3 (3 μm, 3.0×50 mm) column was used for separation. The mobile phase consisted 0.1% formic acid in water (A) and 0.1% formic acid in acetonitrile (B) with a flow rate set at 1.2 mL/min. For the prodrug analysis, the Multiple Reaction Monitoring (MRM) specific for each compound was set up so that both prodrug and its hydrolyzed active can be monitored simultaneously.
(§4) Half-lives listed are based on disappearance of starting ester.

[2] = Stability/conversion of esters in rat intestinal S9; format: in vitro ADME
Protocol: as §1, §2, §3, §4

[3] = Stability/conversion of esters in rat liver S9; format: in vitro ADME
Protocol: as §1, §2, §3, §4

[4] = Stability/conversion of esters in human intestinal S9; format: in vitro ADME
Protocol: as §1, §2, §3, §4

[5] = Stability/conversion of esters in human liver S9; format: in vitro ADME
Protocol: as §1, §2, §3, §4

[6] = intestinal S9, pH 7.4, read-out: T1/2 Rat Intestinal S9
[7] = liver S9, pH 7.4, read-out: T1/2 Rat Liver S9
[8] = intestinal S9 (without PMSF), pH 7.4, read-out: T1/2 Human Intestinal S9
[9] = liver S9, pH 7.4, read-out: T1/2 Human Liver S9
[10] = s9, pH 7.4, read-out: T1/2 Rat Intestinal S9
[11] = s9, pH 7.4, read-out: T1/2 Rat Liver S9
[12] = s9, pH 7.4, read-out: T1/2 Human Intestinal S9
[13] = s9, pH 7.4, read-out: T1/2 Human Liver S9

| SMILES | half-life at 10 μM ([1]; HEPES buffer without enzyme) [min] | half-life at 10 μM [2, 6] [min] | half-life at 10 μM [3, 7] [min] | half-life at 10 μM [4, 8] [min] | half-life at 10 μM [5, 9] [min] | half-life at 10 μM ([1]; buffer) [min] | half-life at 10 μM [2, 10] [min] | half-life at 10 μM [3, 11] [min] | half-life at 10 μM [4, 12] [min] | half-life at 10 μM [5, 13] [min] |
| --- | --- | --- | --- | --- | --- | --- | --- | --- | --- | --- |
| CC1=C[C@@H]2CN(C(=O)N2O[C@H](F)C(=O)OC(C)OC(=O)OC(C)C)[C@@H]1C(N)=O (stereo partly drawn) [Example 53, 1-isopropoxycarbonyloxyethyl (2R)-2-[[(2S,5R)-2-carbamoyl-3-methyl-7-oxo-1,6-diazabicyclo[3.2.1]oct-3-en-6-yl]oxy]-2-fluoro-acetate] | 4.8 | 4.2 | 2 | < 1 | 1.7 | – | – | – | – | – |
| COCCOC(=O)[C@@H](F)ON1C(=O)N2C[C@H]1C=C(C)[C@H]2C(N)=O [Example 18, 2-methoxyethyl (2R)-{[(2S,5R)-2-carbamoyl-3-methyl-7-oxo-1,6-diazabicyclo[3.2.1]oct-3-en-6-yl]oxy}(fluoro)ethanoate] | 18 | 16 | 7 | 15 | 9.2 | – | – | – | – | – |
| C=CCOC(=O)[C@@H](F)ON1C(=O)N2C[C@H]1C=C(C)[C@H]2C(N)=O [Example 47, allyl (2R)-2-[[(2S,5R)-2-carbamoyl-3-methyl-7-oxo-1,6-diazabicyclo[3.2.1]oct-3-en-6-yl]oxy]-2-fluoro-acetate] | 12 | 11 | 1.8 | 8.2 | 2.3 | – | – | – | – | – |
| CCCOC(=O)[C@@H](F)ON1C(=O)N2C[C@H]1C=C(C)[C@H]2C(N)=O [Example 48, propyl (2R)-2-[[(2S,5R)-2-carbamoyl-3-methyl-7-oxo-1,6-diazabicyclo[3.2.1]oct-3-en-6-yl]oxy]-2-fluoro-acetate] | 62 | 50 | 3 | 42 | 6.1 | – | – | – | – | – |
| CCOC(=O)[C@@H](F)ON1C(=O)N2C[C@H]1C=C(C)[C@H]2C(=O)NCO [Example 86, ethyl (2R)-2-fluoro-2-[[(2S,5R)-2-(hydroxymethylcarbamoyl)-3-methyl-7-oxo-1,6-diazabicyclo[3.2.1]oct-3-en-6-yl]oxy]acetate] | 39 | 43 | 23 | 36 | 24 | – | – | – | – | – |
| CCOC(=O)[C@@H](F)ON1C(=O)N2C[C@H]1C=C(C)[C@H]2C(N)=O [Example 1, (R)-ethyl 2-((2S,5R)-2-carbamoyl-3-methyl-7-oxo-1,6-diazabicyclo[3.2.1]oct-3-en-6-yloxy)-2-fluoroacetate] | – | – | – | – | – | 41 | 39 | 4.4 | 38 | 6.5 |
| CCOC(=O)[C@H](F)ON1C(=O)N2C[C@H]1C=C(C)[C@H]2C(=O)NCO [Example 85, ethyl (2S)-2-fluoro-2-[[(2S,5R)-2-(hydroxymethylcarbamoyl)-3-methyl-7-oxo-1,6-diazabicyclo[3.2.1]oct-3-en-6-yl]oxy]acetate] | 26 | 21 | 3.8 | 20 | 3.5 | – | – | – | – | – |
| CC1=C[C@@H](C(N)=O)N2C[C@@H]1N(O[C@@H](F)C(=O)OC(C)C)C2=O [Example 36, (2S)-isopropyl 2-(((2S,5R)-2-carbamoyl-4-methyl-7-oxo-1,6-diazabicyclo[3.2.1]oct-3-en-6-yl)oxy)-2-fluoroacetate] | – | – | – | – | – | 91 | 68 | 3 | 36 | 8.5 |
| CCCCOC(=O)[C@@H](F)ON1C(=O)N2C[C@H]1C=C(C)[C@H]2C(N)=O [Example 50, butyl (2R)-2-[[(2S,5R)-2-carbamoyl-3-methyl-7-oxo-1,6-diazabicyclo[3.2.1]oct-3-en-6-yl]oxy]-2-fluoro-acetate] | 120 | 30 | 2.8 | 73 | 3.5 | – | – | – | – | – |
| CCOC(=O)CON1C(=O)N2C[C@H]1C=C(C)[C@H]2C(N)=O [Example 9, ethyl {[(2S,5R)-2-carbamoyl-3-methyl-7-oxo-1,6-diazabicyclo[3.2.1]oct-3-en-6-yl]oxy}acetate] | 18.3 | 27.3 | 1.4 | 17.8 | 2.9 | – | – | – | – | – |
| CC1=C[C@@H]2CN(C(=O)N2O[C@H](F)C(=O)OC(C(C)C)C(C)C)[C@@H]1C(N)=O [Example 15, 2,4-dimethylpentan-3-yl (2R)-{[(2S,5R)-2-carbamoyl-3-methyl-7-oxo-1,6-diazabicyclo[3.2.1]oct-3-en-6-yl]oxy}(fluoro)ethanoate] | 98 | > 100 | 1.5 | > 100 | 12.4 | – | – | – | – | – |
| CCOC(=O)C(F)(F)ON1C(=O)N2C[C@H]1C(C)=C[C@H]2C(N)=O [Example 90, ethyl 2-(((2S,5R)-2-carbamoyl-4-methyl-7-oxo-1,6-diazabicyclo[3.2.1]oct-3-en-6-yl)oxy)-2,2-difluoroacetate] | 2.9 | 3.3 | 0.7 | 1 | 0.7 | – | – | – | – | – |
| CC1=C[C@@H]2CN(C(=O)N2O[C@H](F)C(=O)OCc2ccccc2)[C@@H]1C(N)=O [Example 54, (2R)-benzyl 2-(((2S,5R)-2-carbamoyl-3-methyl-7-oxo-1,6-diazabicyclo[3.2.1]oct-3-en-6-yl)oxy)-2-fluoroacetate] | – | – | – | – | – | 22 | 19 | 0.9 | 5 | 1.9 |
| CCCCCOC(=O)[C@@H](F)ON1C(=O)N2C[C@H]1C=C(C)[C@H]2C(N)=O [Example 51, pentyl (2R)-2-[[(2S,5R)-2-carbamoyl-3-methyl-7-oxo-1,6-diazabicyclo[3.2.1]oct-3-en-6-yl]oxy]-2-fluoro-acetate] | 75 | 4.1 | 1.7 | 1.5 | 6.4 | – | – | – | – | – |
| CC[C@@H](C)OC(=O)[C@@H](F)ON1C(=O)N2C[C@H]1C=C(C)[C@H]2C(N)=O [Example 22, (2R)-(R)-sec-butyl 2-(((2S,5R)-2-carbamoyl-3-methyl-7-oxo-1,6-diazabicyclo[3.2.1]oct-3-en-6-yl)oxy)-2-fluoroacetate] | – | – | – | – | – | 38 | 56 | 9.2 | 43 | 4.6 |
| CCCCCCCCOC(=O)[C@@H](F)ON1C(=O)N2C[C@H]1C=C(C)[C@H]2C(N)=O [Example 45, octyl (2R)-2-[[(2S,5R)-2-carbamoyl-3-methyl-7-oxo-1,6-diazabicyclo[3.2.1]oct-3-en-6-yl]oxy]-2-fluoro-acetate] | 33 | 17 | 0.22 | 2 | 0.39 | – | – | – | – | – |
| CCOC(=O)[C@@H](F)ON1C(=O)N2C[C@H]1C(C)=C[C@H]2C(N)=O [Example 31, (2R)-ethyl 2-(((2S,5R)-2-carbamoyl-4-methyl-7-oxo-1,6-diazabicyclo[3.2.1]oct-3-en-6-yl)oxy)-2-fluoroacetate] | – | – | – | – | – | 44 | 42 | 20 | 35 | 27 |
| CCOC(=O)[C@H](F)ON1C(=O)N2C[C@H]1C=C(C)[C@H]2C(N)=O [Example 2, (S)-ethyl 2-((2S,5R)-2-carbamoyl-3-methyl-7-oxo-1,6-diazabicyclo[3.2.1]oct-3-en-6-yloxy)-2-fluoroacetate] | – | – | – | – | – | 29 | 24 | 1.4 | 21 | 1.9 |
| CCCCCCOC(=O)[C@@H](F)ON1C(=O)N2C[C@H]1C=C(C)[C@H]2C(N)=O [Example 52, hexyl (2R)-2-[[(2S,5R)-2-carbamoyl-3-methyl-7-oxo-1,6-diazabicyclo[3.2.1]oct-3-en-6-yl]oxy]-2-fluoro-acetate] | 76 | 39 | 0.45 | 5.7 | 0.84 | – | – | – | – | – |
| CCOC(=O)C(F)(F)ON1C(=O)N2C[C@H]1C=C(C)[C@H]2C(N)=O [Example 7, ethyl {[(2S,5R)-2-carbamoyl-3-methyl-7-oxo-1,6-diazabicyclo[3.2.1]oct-3-en-6-yl]oxy}(difluoro)acetate] | 3.9 | 3.9 | 0.5 | 2.4 | 0.8 | – | – | – | – | – |
